The record followed here is ChEMBL document CHEMBL1201862, “PubChem BioAssay data set” (2004).

Molecules are shown by their SMILES.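 Five compound concentrations were applied to cells in 96-well plates for 48 hours; endpoints were derived by simple linear interpolation of the resulting dose-response curve. At the GI50, growth is halved.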 Active and inactive are the calls of the source. No stated cut-off is given here; in the data, active = GI50 up to about 1.1 µM and inactive = higher.

Test systems include CAKI-1; COLO 205; UO-31; NCI/ADR-RES; HCT-116; OVCAR-8; T47D; SNB-75; NCI-H226; LOX IMVI; HCC 2998; EKVX; M14; HOP-92; SF-539; MDA-MB-435; NCI-H23; ACHN; NCI-H522.
Holding throughout (assay): DTP human tumour cell line panel, 48 h

As for `O=C(NC1CCCCC1)c1cc2ccccc2cc1O`, the GI50 with CAKI-1 is 47 µM (inactive); in the assay with COLO 205 it was 53.1 µM (inactive); in the assay with UO-31, 32.4 µM (inactive); in the assay with NCI/ADR-RES, 17.7 µM (inactive); with HCT-116, 18.7 µM (inactive); in the assay with OVCAR-8, 26.2 µM (inactive). In addition, the GI50 in the assay with T47D is 42.6 µM (inactive); in the assay with SNB-75 it was 45.5 µM (inactive); with NCI-H226, 17.3 µM (inactive); with LOX IMVI, 38.8 µM (inactive); with HCC 2998 it was 23.5 µM (inactive); in the assay with EKVX it was 34.1 µM (inactive). Further, the GI50 with M14 was 21.9 µM (inactive); in the assay on HOP-92 it was 22.3 µM (inactive); in the assay on SF-539, 24 µM (inactive); in the assay with MDA-MB-435, 29.2 µM (inactive).

`COc1ccc(CC2C(=O)NC(C)C(=O)N(C)C3Cc4ccc(cc4)Oc4cc(ccc4O)CC(C(=O)NC(C)C(=O)NC(C)C(=O)N2C)N(C)C3=O)cc1` (configuration not stated): the GI50 is 0.0175 µM (active) in the assay with COLO 205; 0.857 µM (active) in the assay with UO-31; 0.0175 µM (active) in the assay with NCI-H23; 0.0738 µM (active) in the assay with ACHN; 2.44 µM (inactive) in the assay on NCI/ADR-RES; 0.0175 µM (active) with HCT-116. The GI50 is 0.0191 µM (active) in the assay with OVCAR-8; < 0.0001 µM (active) in the assay on T47D; 0.0175 µM (active) in the assay with SNB-75; 0.0409 µM (active) in the assay with LOX IMVI; 0.0175 µM (active) with HCC 2998; 0.0175 µM (active) in the assay on EKVX. Further, the GI50 in the assay on M14 was 0.0027 µM (active); in the assay with SF-539, 0.0175 µM (active); in the assay on MDA-MB-435, < 0.0001 µM (active).

With `CC(=O)OC1COC(n2c(=S)n(-c3ccc(C)cc3)c(=O)c3ccccc32)C(OC(C)=O)C1OC(C)=O` (configuration not stated), the GI50 in the assay on NCI-H522, with CAKI-1, in the assay with COLO 205, in the assay with UO-31, with NCI-H23 and with ACHN was > 100 µM (inactive) in each case. The GI50 was > 100 µM (inactive) with HCT-116; 68.2 µM (inactive) in the assay with OVCAR-8; 63.2 µM (inactive) in the assay on SNB-75; > 100 µM (inactive) in the assay on NCI-H226; > 100 µM (inactive) in the assay on LOX IMVI; > 100 µM (inactive) with HCC 2998. Further, the GI50 in the assay on EKVX was > 100 µM (inactive); with M14 it was > 100 µM (inactive); in the assay with HOP-92, 45.8 µM (inactive); with SF-539, > 100 µM (inactive).

Take `Cc1[nH]c2ccccc2c1C1Cc2ccccc2N1C(=O)/C(Cl)=C/c1ccccc1` (configuration not stated): the GI50 with NCI-H522 is > 100 µM (inactive); with CAKI-1, 50.6 µM (inactive); with COLO 205, > 100 µM (inactive); with UO-31, 16.3 µM (inactive); in the assay with NCI-H23 it was 48.4 µM (inactive); in the assay with ACHN it was 98.9 µM (inactive). Besides, the GI50 with HCT-116 is 36.5 µM (inactive); in the assay on OVCAR-8 it was > 100 µM (inactive); in the assay on SNB-75 it was 4.65 µM (inactive); in the assay with NCI-H226, > 69 µM (inactive); with LOX IMVI, > 100 µM (inactive); with HCC 2998, > 100 µM (inactive). Besides, the GI50 in the assay on EKVX was > 48.9 µM (inactive); with M14, > 100 µM (inactive); with HOP-92 it was > 100 µM (inactive); with SF-539 it was 40.9 µM (inactive).

With `COc1cc(/C=C2/C(=O)N(C(=O)OCC(C)C)C(Cc3cc(OC)c(OC)c(C)c3OC)C(=O)N2Cc2ccccc2)c(OC)c(C)c1OC` (configuration not stated), the GI50 in the assay on NCI-H522 is 5.26 µM (inactive); in the assay on CAKI-1, > 100 µM (inactive); in the assay on COLO 205, 11.2 µM (inactive); with UO-31, 11.6 µM (inactive); with NCI-H23, > 100 µM (inactive); in the assay with ACHN, > 100 µM (inactive). Besides, the GI50 in the assay with HCT-116 was 20.2 µM (inactive); with OVCAR-8 it was > 100 µM (inactive); in the assay on SNB-75, > 100 µM (inactive); in the assay on NCI-H226 it was 2.56 µM (inactive); in the assay with LOX IMVI, > 100 µM (inactive); in the assay on HCC 2998, > 100 µM (inactive). The GI50 in the assay on EKVX was 72.1 µM (inactive); with M14 it was 69.3 µM (inactive); in the assay with HOP-92 it was 4.74 µM (inactive); with SF-539, > 100 µM (inactive).

For `O=c1c(C(c2ccc([N+](=O)[O-])cc2)c2c(O)c3ccccc3n(-c3ccccc3)c2=O)c(O)c2ccccc2n1-c1ccccc1`, the GI50 in the assay with NCI-H522 is 22.2 µM (inactive); in the assay with CAKI-1, 44.4 µM (inactive); in the assay on COLO 205, 23.2 µM (inactive); with UO-31, 8.51 µM (inactive); in the assay with NCI-H23, 11.2 µM (inactive); in the assay with ACHN, 13.9 µM (inactive). Besides, the GI50 in the assay with HCT-116 is 18.7 µM (inactive); in the assay on OVCAR-8, 14.9 µM (inactive); in the assay with NCI-H226, 24.1 µM (inactive); in the assay on LOX IMVI it was 11.8 µM (inactive); with HCC 2998 it was 12.4 µM (inactive); in the assay with EKVX, 24.5 µM (inactive). Also, the GI50 in the assay with HOP-92 is 9.18 µM (inactive); with SF-539 it was 12.6 µM (inactive).

Consider `CC(C)C(C(=O)O)N(CC1(O)OCC(O)C(O)C1O)N=O` (configuration not stated), for which the GI50 in the assay on NCI-H522, in the assay with COLO 205, in the assay on UO-31, in the assay on NCI-H23, in the assay with ACHN and in the assay with HCT-116 was > 100 µM (inactive) in each case. The GI50 with OVCAR-8, in the assay with SNB-75, in the assay with LOX IMVI, in the assay with HCC 2998, with EKVX and in the assay on M14 was > 100 µM (inactive) in each case. Also, the GI50 in the assay on HOP-92 and in the assay with SF-539 was > 100 µM (inactive) throughout.

`CSc1nc2c(nc(N)n2C2OC(COC(C)=O)C(OC(C)=O)C(OC(C)=O)C2OC(C)=O)c(=O)n1C` (configuration not stated): the GI50 in the assay with CAKI-1, with COLO 205, with UO-31, with NCI-H23, with ACHN and in the assay with HCT-116 was > 100 µM (inactive) throughout. In addition, the GI50 with OVCAR-8, in the assay with SNB-75, with NCI-H226, in the assay on LOX IMVI, in the assay with HCC 2998 and in the assay with EKVX was > 100 µM (inactive) each time. For the same compound, the GI50 with M14, in the assay with HOP-92 and in the assay on SF-539 was > 100 µM (inactive) in each case.

For `CN(C)CC1(C)CC/C(=C\c2ccc3c(c2)OCO3)C1=O` (configuration not stated), the GI50 in the assay on NCI-H522 was 39.5 µM (inactive); in the assay with CAKI-1 it was 6.58 µM (inactive); in the assay on COLO 205 it was > 100 µM (inactive); with UO-31, > 100 µM (inactive); in the assay on NCI-H23 it was > 100 µM (inactive); in the assay on ACHN it was > 100 µM (inactive). Also, the GI50 with HCT-116, in the assay on OVCAR-8, with SNB-75, with NCI-H226, in the assay with LOX IMVI and with HCC 2998 was > 100 µM (inactive) each time. Also, the GI50 with M14, in the assay with HOP-92 and in the assay on SF-539 was > 100 µM (inactive) each time.

For `Clc1ccc2c(c1)-c1c3c(nn1-c1ccccc1)-c1ccccc1SC3O2` (configuration not stated), the GI50 was 29 µM (inactive) in the assay with NCI-H522; > 100 µM (inactive) with COLO 205; > 100 µM (inactive) in the assay with UO-31; > 100 µM (inactive) in the assay with NCI-H23; > 100 µM (inactive) in the assay with ACHN; > 100 µM (inactive) with HCT-116. The GI50 in the assay with OVCAR-8 was > 100 µM (inactive); with SNB-75, 82.6 µM (inactive); in the assay on LOX IMVI, 71.3 µM (inactive); with HCC 2998 it was > 100 µM (inactive); in the assay with EKVX it was > 100 µM (inactive); in the assay with HOP-92, 35.7 µM (inactive). In the assay with SF-539, the GI50 was > 100 µM (inactive).

On to `Cc1ccc(/N=N/c2c(C)nn(-c3ccccc3)c2-c2ccccc2)c(Br)c1`, for which the GI50 with NCI-H522 was 97.1 µM (inactive); with CAKI-1 it was > 100 µM (inactive); with UO-31 it was > 100 µM (inactive); in the assay with ACHN it was 53.8 µM (inactive); with HCT-116, 12.6 µM (inactive); with OVCAR-8, > 100 µM (inactive). Moreover, the GI50 was > 100 µM (inactive) in the assay on SNB-75; > 100 µM (inactive) in the assay with NCI-H226; 37.2 µM (inactive) in the assay on LOX IMVI; 61.8 µM (inactive) in the assay with HCC 2998; > 100 µM (inactive) in the assay on EKVX; > 100 µM (inactive) in the assay with M14. Also, the GI50 in the assay on HOP-92 was 40 µM (inactive); in the assay with SF-539, 20.2 µM (inactive).

On to `CC(=O)O[C@H]1C(=O)[C@@]2(C)[C@H]([C@H](OC(=O)c3ccccc3)[C@]3(O)C[C@H](OC(=O)[C@H](O)[C@@H](NC(=O)c4ccco4)c4ccccc4)C(C)=C1C3(C)C)[C@]1(OC(C)=O)CO[C@@H]1C[C@@H]2O`, for which the GI50 in the assay on NCI-H522 is < 0.00125 µM (active); in the assay on CAKI-1, 0.278 µM (active); with COLO 205, < 0.00125 µM (active); in the assay with UO-31 it was 0.627 µM (active); in the assay with NCI-H23 it was 0.00136 µM (active); in the assay with ACHN, 0.043 µM (active). The GI50 in the assay with NCI/ADR-RES was 2.64 µM (inactive); with HCT-116 it was < 0.00125 µM (active); with OVCAR-8 it was < 0.00125 µM (active); in the assay on T47D it was < 0.00125 µM (active); in the assay with SNB-75, < 0.00125 µM (active); with NCI-H226 it was 0.00126 µM (active). Also, the GI50 in the assay with LOX IMVI was < 0.00125 µM (active); with HCC 2998 it was < 0.00125 µM (active); in the assay on EKVX, 0.0112 µM (active); in the assay with M14 it was < 0.00125 µM (active); in the assay on SF-539, < 0.00125 µM (active); in the assay on MDA-MB-435, < 0.00125 µM (active).
